Assay results taken from ChEMBL document CHEMBL1909604, “A novel potential therapeutic avenue for autism: design, synthesis and pharmacophore generation of SSRIs with dual action” (Bioorg Med Chem Lett, 2011).

What was measured:
[1] = biological target: 5-hydroxytryptamine receptor 1D (Homo sapiens, UniProt P28221); test: Displacement of [3H]GR125743 from recombinant human 5-HT1D receptor expressed in HEK cells by scintillation counting; type: cell-based, HEK293
[2] = biological target: 5-hydroxytryptamine receptor 1B (Homo sapiens, UniProt P28222); test: Displacement of [3H]carboxytryptamine from recombinant human 5-HT1B receptor expressed in HEK cells by scintillation counting; type: cell-based, HEK293
Sequence of 5-hydroxytryptamine receptor 1B (P28222 whole entry): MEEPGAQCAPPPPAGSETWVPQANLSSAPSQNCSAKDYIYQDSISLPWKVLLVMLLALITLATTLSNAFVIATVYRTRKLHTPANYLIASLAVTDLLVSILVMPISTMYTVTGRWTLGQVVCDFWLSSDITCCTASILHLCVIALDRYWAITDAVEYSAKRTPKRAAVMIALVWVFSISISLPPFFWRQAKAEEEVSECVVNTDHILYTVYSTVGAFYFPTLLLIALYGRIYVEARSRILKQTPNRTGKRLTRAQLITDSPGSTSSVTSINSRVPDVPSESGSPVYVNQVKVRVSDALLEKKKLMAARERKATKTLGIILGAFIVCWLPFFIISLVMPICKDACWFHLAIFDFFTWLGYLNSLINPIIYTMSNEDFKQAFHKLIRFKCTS

Sequence of 5-hydroxytryptamine receptor 1D (P28221 whole entry): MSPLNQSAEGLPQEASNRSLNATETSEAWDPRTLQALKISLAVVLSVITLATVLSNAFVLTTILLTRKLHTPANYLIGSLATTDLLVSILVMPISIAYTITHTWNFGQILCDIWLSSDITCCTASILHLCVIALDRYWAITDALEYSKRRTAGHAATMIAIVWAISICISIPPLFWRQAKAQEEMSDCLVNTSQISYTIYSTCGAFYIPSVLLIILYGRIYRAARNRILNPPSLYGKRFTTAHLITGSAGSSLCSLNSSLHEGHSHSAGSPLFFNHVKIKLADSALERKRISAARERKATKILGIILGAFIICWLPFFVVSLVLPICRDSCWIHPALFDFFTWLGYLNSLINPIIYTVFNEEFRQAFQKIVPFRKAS

Compound: COc1ccc(NC(=O)c2ccc3c(c2)N(C)C(=O)CN3c2ccc(Cl)c(Cl)c2)cc1N1CCN(C)CC1
- Ki [1]: 44 nM
- Ki [2]: 120 nM
